Results on 1 compound are retold here after article PMC3753754, “Andrographis paniculata Extract and Andrographolide Modulate the Hepatic Drug Metabolism System and Plasma Tolbutamide Concentrations in Rats” (Evidence-based Complementary and Alternative Medicine : eCAM, 2013).

Series [1] in a line: Plasma aminotransferases (AST, ALT) of treated rats. It counts as in vivo, Sprague-Dawley rats. The protocol:
All animals were killed by exsanguination via the abdominal aorta while under carbon dioxide (CO2/O2, 70%/30%) anesthesia. Heparin was used as the anticoagulant. Plasma was separated from the blood by centrifugation (1750 ×g) at 4°C for 20 min. The liver from each animal was excised, weighed, and stored at −80°C. This research has received ethical approval from the institutional animal ethics committee of China Medical University, Taichung, Taiwan.
Plasma glucose was determined by use of enzymatic kits purchased from Audit Diagnostics Co. (Cork, Ireland). Plasma aspartate aminotransferase (AST) and alanine aminotransferase (ALT) activities were measured by using commercial kits purchased from Randox Laboratories (Antrim, UK).

Another series concerns CYP2C. The series can be described thus: Diclofenac 4-hydroxylation in liver microsomes of treated rats. The class given is in vivo. To be noted: rat liver microsomes; oral 2 g/kg APE or 50 mg/kg AND daily for 5 days. The protocol: (§1) Liver was homogenized (1 : 4, w/v) in an ice-cold potassium phosphate buffer (pH 7.4) containing 7.4 mM K2HPO4, 2.6 mM KH2PO4, 1.15% KCl, and 1 mM phenylmethylsulfonyl fluoride (PMSF). Tissue homogenates were centrifuged at 10,000 ×g for 30 min at 4°C. The resulting supernatant was then centrifuged at 105,000 ×g for 1 h at 4°C. The microsomes thus obtained were washed several times to get rid of possible tolbutamide contamination and this can avoid tolbutamide interference of CYP activity, and the microsomes were then suspended in potassium phosphate buffer (pH 7.7) containing 7.5 mM K2HPO4, 14.5 mM KH2PO4, and 1 mM EDTA. […] Metabolites of each CYP enzyme reaction were determined by LC/MS as reported previously. The contents of total CYP and cytochrome b5 were quantified by the method of Omura and Sato [29]. Enzyme activity is expressed as picomoles of metabolite formed per minute per milligram of protein. The NADPH-CYP reductase activity was measured as described by Phillips and Langdon with the use of cytochrome c as the substrate. The microsomal protein concentration was determined by using a Coomassie Plus protein assay kit (Pierce, Rockford, IL, USA).
In general terms: Liver microsomes are vesicles of endoplasmic reticulum, rich in cytochrome P450 enzymes.

The next series deals with P-glycoprotein. Put plainly: Immunoblot and RT-PCR of hepatic P-glycoprotein in treated rats. It counts as in vivo. The note with it: rat liver; APE or andrographolide for 5 days. The protocol: For P-glycoprotein expression, liver tissue was homogenized with phosphate-buffered saline containing 0.2% Triton X-100, 5 mM EDTA, and 1 mM PMSF. The homogenates were then centrifuged at 10,000 ×g for 30 min at 4°C. Proteins in the resulting supernatants were electrophoretically separated and were immunoblotted with P-glycoprotein antibody. The immunoreactive bands were detected by using an enhanced chemiluminescence plus Western blotting detection reagent (Amersham Biosciences, Boston, MA, USA).
Total RNA in liver samples was extracted by using the Trizol reagent (1 : 20, w/v). […] The sequences for the PCR primers were as follows: for CYP1A1 (forward: 5′-[…]-3′; reverse: 5′-[…]-3′), CYP1A2 (forward: 5′-[…]-3′; reverse: 5′-[…]-3′), CYP2C6 (forward: 5′-[…]-3′; reverse: 5′-[…]-3′), CYP2C11 (forward: 5′-[…]-3′; reverse: 5′-[…]-3′), CYP2D1 (forward: 5′-[…]-3′; reverse: 5′-[…]-3′), CYP2E1 (forward: 5′-[…]-3′; reverse: 5′-[…]-3′), CYP3A1 (forward: 5′-[…]-3′; reverse: 5′-[…]-3′), CYP3A2 (forward: 5′-[…]-3′; reverse: 5′-[…]-3′), and P-glycoprotein (forward: 5′-[…]-3′; reverse: 5′-[…]-3′). […] The PCR amplicons were then electrophoresed in 1% agarose gels containing 40 mM Tris/20 mM glacial acetic acid/2 mM EDTA buffer, and the relative densities of the PCR products were quantitated by use of Image Gauge software (Fujifilm, Tokyo, Japan). […]
A general note: A western blot detects proteins with antibodies after separation by electrophoresis.

A further series concerns CYP3A. Put plainly: Midazolam 1-hydroxylation in liver microsomes of treated rats. The note with it: rat liver microsomes; oral 2 g/kg APE or 50 mg/kg AND daily for 5 days. It counts as in vivo. The protocol:
as §1

Setting [2] is: rats, oral 2 g/kg APE or 50 mg/kg AND daily for 5 days, mean ± SD, n = 5.

Marks after values point to notes of the source that are not given here.

As to `C=C1CC[C@@H]2[C@](C)(CO)[C@H](O)CC[C@@]2(C)[C@@H]1C/C=C1/C(=O)OC[C@H]1O` [andrographolide, Andrographolide], the “Effect on rat liver function” value in series [1] (2 g/kg APE and 50 mg/kg AND, plasma AST and ALT) is “no deleterious effect”. Also, in series [1] (setting [2]), the “Plasma aminotransferases, ALT” value is 15.8 ± 8.2 U/L and the “Plasma aminotransferases, AST” value came to 27.7 ± 4.4 U/L. For the same compound, the “Diclofenac 4-hydroxylase (2C)” value with CYP2C was 43.8 ± 10.5^b pmol/min/mg protein. Besides, the “Protein and mRNA levels of membrane transporter P-glycoprotein” value in the series on P-glycoprotein is reported as “only a minor effect”. Also, the “Midazolam 1-hydroxylase (3A)” value in the series with CYP3A was 320 ± 84^ab pmol/min/mg protein.
